Where two headings read alike, the source gives them in different places.
What was measured:
[1] = tested on: T98G cells; experiment: 72-hour cell viability assay (Alamar Blue), T98G; assay type: cell-based; conditions: WT BRAF
Protocol: (§1) Cell Culture and reagents. All cell lines were grown in a 37° C., 5% CO2, humidified environment, in media containing 1% penicillin/streptomycin. Cell culture conditions are as follows: MDCK cells transfected with MDR1 (or ABCB1) were obtained from the Netherlands Cancer Institute (Amsterdam, The Netherlands) and maintained in DMEM with 10% fetal bovine serum (FBS, Gemini). Traditional cell lines A375, CHL-1, B16F10, and U118MG were grown in DMEM with 10% FBS, SK-MEL-28, U87 and T98G in EMEM with 10% FBS, AM-38 in EMEM with 20% HI-FBS (Gibco), HT29 in McCoy's 5A with 10% FBS, HCT116 in RPMI with 10% FBS. Compounds were dissolved in DMSO (1% final concentration, Sigma-Aldrich) for cell culture studies.
(§2) Cell viability assays. Cells were harvested, seeded in a 96-well plate and allowed to adhere overnight. Compound was added to each well in DMSO (1% final concentration). Cells were incubated for 72 hours before viability was assessed by the Alamar Blue Assay. Raptinal ([…]) was used as a dead control.

[2] = tested on: A375 cells; experiment: 72-hour cell viability assay (Alamar Blue), A375; assay type: cell-based, human; conditions: for IC50: 72-hour incubation, Alamar Blue, V600E BRAF
Protocol: as §1, §2

[3] = tested on: U118MG cells; experiment: 72-hour cell viability assay (Alamar Blue), U118MG; assay type: cell-based; conditions: WT BRAF
Protocol: as §1, §2

[4] = tested on: U87 cells; experiment: 72-hour cell viability assay (Alamar Blue), U87; assay type: cell-based; conditions: WT BRAF
Protocol: as §1, §2

[5] = tested on: HT29 cells; experiment: 72-hour cell viability assay (Alamar Blue), HT29; assay type: cell-based; conditions: colon
Protocol: as §1, §2

[6] = target: T1, P-gp (Homo sapiens, UniProt P08183); experiment: MDR1-MDCK P-gp transwell bidirectional transport assay; assay type: in vitro ADME; conditions: for Papp A→B at 90 min, 10 µM / Papp B→A at 90 min, 10 µM / efflux ratio at 90 min, 10 µM / Papp at 90 min, 10 µM: dog; for Papp A→B at 90 min, 10 µM / Papp B→A at 90 min, 10 µM / efflux ratio at 90 min, 10 µM: MDCK-MDR1, MDR1-MDCK; for efflux ratio at 90 min, 10 µM: read-out: ER (efflux ratio) (converted); for Papp at 90 min, 10 µM: MDCK-MDR1, range of Papp A-B to B-A, read-out: cell culture permeabilities; for ER (efflux ratio) / Papp A-B / Papp B-A: MDR1-MDCK; for Papp A→B at 90 min, 10 µM / Papp B→A at 90 min, 10 µM / efflux ratio at 90 min, 10 µM / ER (efflux ratio) / Papp A-B / Papp B-A: 10 μM, 90 min
T1 construct: host or cells: MDCK (MDR1-MDCK)
Protocol: A novel compound collection composed of complex and diverse compounds derived from natural products, termed “Complexity-to-Diversity Collection” was employed. […] The CtD compounds were evaluated by the efflux pump and their permeability using the P-gp transwell assay using adapted and optimized known protocols. Compound transport across epithelial cells overexpressing P-gp from basolateral-to-apical and apical-to-basolateral directions were quantified to calculate permeability and efflux ratio.
P-gp transwell bidirectional transport assays. Unless noted otherwise, the transport assay was performed in triplicate in batches of 16 or 24 test compounds, with each batch containing quinidine as a substrate control and propranolol as a non-substrate control. MDR1-MDCK cells were plated at a density of 300,000 cells/cm^2 onto 96-well Falcon™ Multiwell Insert System with 1 µm pore polycarbonate filters with angled-bottom receiver plates (Coming) and were fed with the cell growth medium on day 2.
The donor solution was prepared by adding 1 mM DMSO stocks of compounds to make the final concentration […], and the receiver solution was prepared with equivalent volume of DMSO to make 1% DMSO in final assay chamber volumes.
After 80-96 hours since seeding, the growth media on both sides was aspirated. To the transwell plate (apical side), 50 μL of receiver and donor solutions prepared on a 96-well plate were added, and it was placed on top of a separate angled-bottom 96-well plate (basolateral side) containing 260 μL of receiver and donor solutions.
Following 90 minutes of incubation at 37° C. with shaking at 90 rpm, 20 μL aliquot of samples were taken from both the donor and receiver chambers, and the apical and basolateral sides. Aliquots of 4 test compounds were pooled for each category: apical-donor, apical-receiver, basolateral-donor, basolateral-receiver. To measure CO and mass balance, initial donor samples from both apical and basolateral side were set aside from the assay plate. Acetonitrile twice the volume of pooled samples was added and mixed thoroughly, and precipitated proteins were removed by centrifugation at 20,000 r.c.f for 10 minutes.
To ascertain the MDCK monolayer integrity, the solution on apical side contained 100 µM Lucifer Yellow (Millipore-Sigma). After 90 minutes of compound transport, Lucifer Yellow concentration in the basal well was measured using SpectraMax M3 (Molecular Devices) set to an excitation wavelength of 430 nm and an emission wavelength of 540 nm.
Samples were analyzed with the 5500 QTRAP LC/MS/MS system (AB Sciex) with a 1200 series HPLC system (Agilent Technologies) including a degasser, an autosampler, and a binary pump. The liquid chromatography separation was performed on an Agilent SB-Aq column (4.6×50 mm, 5 μm) (Agilent Technologies) with mobile phase A (0.1% formic acid in water) and mobile phase B (0.1% formic acid in acetonitrile). The flow rate was 0.3 ml min^−1. The linear gradient was optimized for each compound. The autosampler was set at 5° C. The injection volume was 15 μL. Mass spectra were acquired with both positive electrospray ionization at the ion spray voltage of 5,500 V and negative electrospray ionization at the ion spray voltage of −4,500 V. The source temperature was 450° C. The curtain gas, ion source gas 1, and ion source gas 2 were 33, 50 and 65, respectively. Multiple reaction monitoring was used to quantify metabolites.
Efflux data calculations.

[7] = tested on: MAPK signaling (phospho-MEK1/2, phospho-ERK1/2) in A375 cells; experiment: Immunoblotting of MEK1/2 and ERK1/2 phosphorylation, A375; assay type: cell-based, human; conditions: for dose-response of phospho-ERK1/2 inhibition: A375, 0.01-10 μM, 1 and 24 h; for inhibition of MAPK signaling (MEK1/2 and ERK1/2 phosphorylation): A375, 1 h of treatment; for inhibition of ERK1/2 phosphorylation after 24 h: A375, highest concentrations (10 μM)
Protocol: Immunoblotting. Cells were lysed using RIPA buffer containing phosphatase (BioVision) and protease inhibitor cocktail (Calbiochem). Protein concentration was determined using the BCA assay (Pierce). Cell lysates containing […] of protein were loaded into each lane of 4% to 20% gradient gels (Bio-Rad) for SDS-PAGE. Proteins were transferred onto PDVF membrane for Western blot analysis. Blots were blocked with BSA for one hour followed by incubation with primary antibody overnight (dilution according to manufacturer's protocols), and then secondary antibody was incubated for one hour. Blots were then imaged with a ChemiDoc Touch (Bio-Rad) after incubation with SuperSignal West Pico Solution (ThermoFischer) following manufacturer's protocols. All antibodies were purchased from Cell Signaling Technology: p-ERK (9101S), ERK (4695S), p-MEK (9121S), MEK (8727S), vinculin (13901S) Rabbit IgG-HRP (7074), […] (5125).

[8] = tested on: CHL-1 cells; experiment: 72-hour cell viability assay (Alamar Blue), CHL-1; assay type: cell-based
Protocol: as §1, §2

[9] = tested on: SK-MEL-28 cells; experiment: 72-hour cell viability assay (Alamar Blue), SK-MEL-28; assay type: cell-based; conditions: melanoma
Protocol: as §1, §2

[10] = tested on: B16F10 cells; experiment: 72-hour cell viability assay (Alamar Blue), B16F10; assay type: cell-based
Protocol: as §1, §2

[11] = Homo sapiens, T98G, glioma, read-out: T98G (WT) IC50
[12] = Homo sapiens, T98G, read-out: T98G IC50
[13] = Homo sapiens, U-118-MG, glioma, read-out: U118MG (WT) IC50
[14] = Homo sapiens, U-118-MG, read-out: U118MG IC50
[15] = Homo sapiens, U-87 MG, read-out: U87 IC50
[16] = Homo sapiens, glioma, read-out: U87 (WT) IC50
[17] = Homo sapiens, HT-29, V600E BRAF
[18] = Homo sapiens, CHL-1, WT BRAF, melanoma, read-out: CHL-1 (WT) IC50
[19] = Homo sapiens, CHL-1, WT BRAF, read-out: CHL-1 IC50
[20] = Homo sapiens, SK-MEL-28, V600E BRAF
[21] = Mus musculus, B16-F10, WT BRAF, melanoma, read-out: B16F10 (WT) IC50
[22] = Mus musculus, B16-F10, WT BRAF, read-out: B16F10 IC50

T1 sequence (P08183 whole entry): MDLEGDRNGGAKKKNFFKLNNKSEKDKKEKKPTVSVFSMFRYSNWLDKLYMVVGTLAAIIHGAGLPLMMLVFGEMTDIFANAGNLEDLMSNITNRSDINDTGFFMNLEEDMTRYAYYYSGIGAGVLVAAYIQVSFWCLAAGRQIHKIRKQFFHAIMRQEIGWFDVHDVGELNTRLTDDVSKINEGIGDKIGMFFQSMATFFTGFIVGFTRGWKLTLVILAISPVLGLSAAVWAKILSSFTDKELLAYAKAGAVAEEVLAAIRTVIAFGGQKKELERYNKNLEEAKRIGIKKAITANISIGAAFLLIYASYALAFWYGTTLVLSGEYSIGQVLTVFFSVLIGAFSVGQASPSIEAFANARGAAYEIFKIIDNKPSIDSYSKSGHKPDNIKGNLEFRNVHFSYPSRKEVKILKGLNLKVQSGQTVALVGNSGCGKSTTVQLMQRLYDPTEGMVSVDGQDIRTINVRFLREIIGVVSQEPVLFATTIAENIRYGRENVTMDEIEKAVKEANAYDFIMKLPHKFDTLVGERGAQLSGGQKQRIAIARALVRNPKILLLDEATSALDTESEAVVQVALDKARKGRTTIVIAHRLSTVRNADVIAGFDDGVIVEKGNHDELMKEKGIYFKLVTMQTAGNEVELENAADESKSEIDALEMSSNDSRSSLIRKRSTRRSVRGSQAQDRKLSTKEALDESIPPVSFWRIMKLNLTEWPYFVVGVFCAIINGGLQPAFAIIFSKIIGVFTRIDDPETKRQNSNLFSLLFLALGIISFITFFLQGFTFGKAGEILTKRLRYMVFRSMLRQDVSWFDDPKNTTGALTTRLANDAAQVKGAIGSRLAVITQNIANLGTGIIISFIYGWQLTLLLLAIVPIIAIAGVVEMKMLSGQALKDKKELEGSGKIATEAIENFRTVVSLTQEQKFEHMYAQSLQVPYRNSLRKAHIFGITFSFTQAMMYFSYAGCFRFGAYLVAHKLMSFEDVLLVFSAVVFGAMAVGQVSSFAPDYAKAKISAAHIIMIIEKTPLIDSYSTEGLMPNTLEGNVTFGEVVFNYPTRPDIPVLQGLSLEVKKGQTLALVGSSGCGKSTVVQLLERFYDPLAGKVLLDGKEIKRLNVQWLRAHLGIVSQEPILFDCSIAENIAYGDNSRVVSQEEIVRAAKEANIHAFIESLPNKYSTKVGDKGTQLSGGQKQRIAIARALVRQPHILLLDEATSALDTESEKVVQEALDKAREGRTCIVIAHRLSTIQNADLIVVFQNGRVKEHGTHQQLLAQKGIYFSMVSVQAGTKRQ

SMILES | IC50 [1, 11] [µM] | IC50 [1, 12] [µM] | IC50 ([2]; Homo sapiens, A-375, 72 h) [µM] | IC50 [3, 13] [µM] | IC50 [3, 14] [µM] | IC50 [4, 15] [µM] | IC50 [4, 16] [µM] | IC50 [5, 17] [µM] | Papp A→B at 90 min, 10 µM [6] [×10⁻⁶ cm/s] | Papp B→A at 90 min, 10 µM [6] [×10⁻⁶ cm/s] | efflux ratio at 90 min, 10 µM [6] | Papp at 90 min, 10 µM [6] [×10⁻⁶ cm/s] | dose-response of phospho-ERK1/2 inhibition [7] | inhibition of MAPK signaling (MEK1/2 and ERK1/2 phosphorylation) [7] | inhibition of ERK1/2 phosphorylation after 24 h [7] | IC50 [8, 18] [µM] | IC50 [8, 19] [µM] | IC50 [9, 20] [µM] | IC50 [10, 21] [µM] | IC50 [10, 22] [µM] | other results
CCCS(=O)(=O)Nc1cc(Cl)cc(-c2nc(C(C)(C)C)sc2-c2ccnc(N)n2)c1F [6-261, N-(3-(5-(2-aminopyrimidin-4-yl)-2-(tert-butyl)thiazol-4-yl)-5-chloro-2-fluorophenyl)propane-1-sulfonamide] | > 1 | > 1 | 0.0028 ± 0.00053 | > 1 | > 1 | > 1 | > 1 | 0.00167 ± 0.00036 | 4.92 ± 0.806 | 6.42 ± 2.45 | 1.4 | 4.9 to 6.4 | clear dose-dependent inhibition | strongly inhibited | sustained | > 1 | > 1 | 0.00235 ± 0.00013 | > 1 | > 1 | 
CCCS(=O)(=O)Nc1cc(Cl)cc(-c2nc(C(C)(C)C)sc2-c2ccnc(NCCCCC(=O)O)n2)c1F [6-263, 5-((4-(2-(tert-butyl)-4-(5-chloro-2-fluoro-3-(propylsulfonamido)phenyl)thiazol-5-yl)pyrimidin-2-yl)amino)pentanoic acid] | > 10 | > 10 | 0.0273 ± 0.00301 | > 10 | > 10 | > 10 | > 10 | 0.0214 ± 0.00421 | 2.15 ± 0.07 | 2.49 ± 0.435 | 1.17 | 2.2 to 2.5 | clear dose-dependent inhibition | strongly inhibited | sustained | > 10 | > 10 | 0.0225 ± 0.0012 | > 10 | > 10 | 
CC(C)(C)c1nc(-c2cccc(NS(=O)(=O)c3c(F)cccc3F)c2F)c(-c2ccnc(N)n2)s1 [Dabrafenib, reference compound] |  |  |  |  |  |  |  |  |  |  |  |  |  |  | diminished inhibition |  |  |  |  |  | IC50 ([1]; read-out: T98G IC50): > 1 µM; IC50 [2]: 0.00746 ± 0.0011 µM; IC50 ([2]; listed as 6-74): 0.00538 ± 0.00038 µM; % Emax ([2]; A375, 72-hour incubation): 65%; IC50 ([3]; read-out: U118MG IC50): > 1 µM; IC50 ([4]; read-out: U87 IC50): > 1 µM; IC50 ([5]; V600E BRAF): 0.00474 ± 0.00084 µM; ER (efflux ratio) [6]: 17.94 ± 6.97; Papp A-B [6]: 1.26 ± 0.672 ×10⁻⁶ cm/s; Papp B-A [6]: 13.2 ± 1.63 ×10⁻⁶ cm/s; Papp A-B ([6]; listed as 6-74): 1.257 ± 0.672 ×10⁻⁶ cm/s; Papp B-A ([6]; listed as 6-74): 13.192 ± 1.632 ×10⁻⁶ cm/s; ER (efflux ratio) ([6]; listed as dabrafenib): 17.9; IC50 ([8]; WT BRAF, read-out: CHL-1 IC50): > 1 µM; IC50 ([9]; V600E BRAF): 0.00476 ± 0.00042 µM; IC50 ([10]; WT BRAF, read-out: B16F10 IC50): > 1 µM

— patent US20250230151A1, “COMPOUNDS FOR CANCERS DRIVEN BY BRAF MUTATION” (THE BOARD OF TRUSTEES OF THE UNIVERSITY OF ILLINOIS, priority 2021, published 2025)
